Assay results taken from US20240182445A1 (ONO PHARMACEUTICAL CO., LTD., priority 2019, published 2024).

These compounds were tested against T1, human TREK-1 (Homo sapiens, UniProt O95069) (assay: TREK-1 Thallium (Tl+) flux assay, Method 1). Settings: TREK-1 Thallium (Tl+) flux assay, Method 1.
T1 construct: expressed in transfected cells
T1 sequence (O95069 1-426): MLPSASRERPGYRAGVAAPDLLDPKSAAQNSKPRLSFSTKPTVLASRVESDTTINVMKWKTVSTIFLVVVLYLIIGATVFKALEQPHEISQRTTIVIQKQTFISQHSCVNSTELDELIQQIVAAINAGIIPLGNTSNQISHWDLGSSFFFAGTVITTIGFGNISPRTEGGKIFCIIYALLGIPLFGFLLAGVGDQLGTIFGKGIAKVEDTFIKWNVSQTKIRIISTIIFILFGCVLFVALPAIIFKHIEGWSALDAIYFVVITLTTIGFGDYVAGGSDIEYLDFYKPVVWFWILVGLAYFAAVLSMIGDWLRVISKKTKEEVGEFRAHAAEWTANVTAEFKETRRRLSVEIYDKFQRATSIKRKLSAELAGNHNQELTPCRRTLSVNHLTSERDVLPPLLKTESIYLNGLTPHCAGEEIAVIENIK
Assay type: cell-based
Procedure, shortened: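 Readout: Thallos fluorescence ratio, taken 25 s post-thallium relative to the pre-thallium baseline average, then converted to % inhibition. Cells were CHO-K1 stably expressing human TREK-1, dye-loaded and exposed to test compound (vehicle 0.3% DMSO) for 10 min prior to thallium stimulation.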

IC50 [nM]	Compound
2780	Cc1cc(-c2ccc(-c3cccs3)cc2)cnc1NC(=O)c1c(Cl)cnn1C1CCN(C(=O)OC(C)(C)C)CC1 [Compound 410, tert-butyl 4-(4-chloro-5-((3-methyl-5-(4-(thiophen-2-yl)phenyl)pyridin-2-yl)carbamoyl)-1H-pyrazol-1-yl)piperidine-1-carboxylate]
5050	COc1ncc(-c2cnc(NC(=O)c3c(Cl)cnn3C3CCN(C(C)=O)CC3)c(C)c2)cc1Cl [Compound 425, 1-(1-acetylpiperidin-4-yl)-4-chloro-N-(5′-chloro-6′-methoxy-5-methyl-[3,3′-bipyridin]-6-yl)-1H-pyrazole-5-carboxamide]
5210	CC(=O)N1CCC(n2ncc(Cl)c2C(=O)Nc2ncc(-c3ccc(C(F)(F)F)cc3)cc2C)CC1 [Compound 427, 1-(1-acetylpiperidin-4-yl)-4-chloro-N-(3-methyl-5-(4-(trifluoromethyl)phenyl)pyridin-2-yl)-1H-pyrazole-5-carboxamide]
1340	Cc1cc(-c2cnn(-c3ccc(F)cc3)c2)cnc1NC(=O)c1c(Cl)cnn1C1CC(C#N)C1 (stereo not shown) [Compound 394, 4-chloro-1-(3-cyanocyclobutyl)-N-(5-(1-(4-fluorophenyl)-1H-pyrazol-4-yl)-3-methylpyridin-2-yl)-1H-pyrazole-5-carboxamide]

Same assay, conditions: TREK-1 Thallium (Tl+) flux assay; no *^12 (Method 2) mark on these rows

IC50 [nM]	Compound
510	CC(C)(C)OC(=O)N1CCC(CCn2ncc(Cl)c2C(=O)Nc2ncc(C#Cc3ccccc3)cc2F)CC1 [Compound 290, tert-butyl 4-(2-(4-chloro-5-((3-fluoro-5-(phenylethynyl)pyridin-2-yl)carbamoyl)-1H-pyrazol-1-yl)ethyl)piperidine-1-carboxylate]
910	O=C(Nc1ncc(C#Cc2ccccc2)cc1Cl)c1c(Cl)cnn1C[C@H]1COCCO1 [Compound 361, (S)-1-((1,4-dioxan-2-yl)methyl)-4-chloro-N-(3-chloro-5-(phenylethynyl)pyridin-2-yl)-1H-pyrazole-5-carboxamide]
850	CCC(=O)N1CCCC(Cn2ncc(Cl)c2C(=O)Nc2ncc(C#Cc3ccc(F)cc3)cc2C)C1 (stereo not shown) [Compound 355, 4-chloro-N-(5-((4-fluorophenyl)ethynyl)-3-methylpyridin-2-yl)-1-((1-propionylpiperidin-3-yl)methyl)-1H-pyrazole-5-carboxamide]
650	Cc1cc(C#Cc2ccccc2)cnc1NC(=O)c1c(Cl)cnn1C1CCCOC1 (stereo not shown) [Compound 327, 4-chloro-N-(3-methyl-5-(phenylethynyl)pyridin-2-yl)-1-(tetrahydro-2H-pyran-3-yl)-1H-pyrazole-5-carboxamide]
1540	O=C(Nc1ncc(C#Cc2ccccc2)cc1Cl)c1c(Cl)cnn1[C@@H]1CCOC1 [Compound 376, (R)-4-chloro-N-(3-chloro-5-(phenylethynyl)pyridin-2-yl)-1-(tetrahydrofuran-3-yl)-1H-pyrazole-5-carboxamide]

Same assay, conditions: TREK-1 Thallium (Tl+) flux assay; values without footnote *12 are Method 1

IC50 [nM]	Compound
220	Cc1cc(C#Cc2ccc(F)cc2)cnc1NC(=O)c1c(Cl)cnn1C1CC2(C1)CN(C(=O)C1COCCO1)C2 (stereo not shown) [Compound 138, 1-(2-(1,4-dioxane-2-carbonyl)-2-azaspiro[3.3]heptan-6-yl)-4-chloro-N-(5-((4-fluorophenyl)ethynyl)-3-methylpyridin-2-yl)-1H-pyrazole-5-carboxamide]
130	CC(=O)N1CC(n2ncc(Cl)c2C(=O)Nc2ncc(C#Cc3ccccc3)cc2F)C1 [Compound 40, 1-(1-acetylazetidin-3-yl)-4-chloro-N-(3-fluoro-5-(phenylethynyl)pyridin-2-yl)-1H-pyrazole-5-carboxamide]
160	O=C(Nc1ncc(C#Cc2cccs2)cc1F)c1c(Cl)cnn1CC1CCOCC1 [Compound 69, 4-chloro-N-(3-fluoro-5-(thiophen-2-ylethynyl)pyridin-2-yl)-1-((tetrahydro-2H-pyran-4-yl)methyl)-1H-pyrazole-5-carboxamide]
280	Cc1cc(C#Cc2ccccc2)cnc1NC(=O)c1c(Cl)cnn1CC1(C)CCN(C(=O)C2CC2C)CC1 (stereo not shown) [Compound 184, 4-chloro-1-((4-methyl-1-(2-methylcyclopropane-1-carbonyl)piperidin-4-yl)methyl)-N-(3-methyl-5-(phenylethynyl)pyridin-2-yl)-1H-pyrazole-5-carboxamide]
160	CCNC(=O)N1CCC(n2ncc(Cl)c2C(=O)Nc2ncc(C#Cc3cccc(F)c3)cc2C)CC1 [Compound 75, 4-(4-chloro-5-((5-((3-fluorophenyl)ethynyl)-3-methylpyridin-2-yl)carbamoyl)-1H-pyrazol-1-yl)-N-ethylpiperidine-1-carboxamide]
270	CC(C)C(=O)N1CCC(n2ncc(Cl)c2C(=O)Nc2ncc(C#Cc3cccs3)cc2F)CC1 [Compound 175, 4-chloro-N-(3-fluoro-5-(thiophen-2-ylethynyl)pyridin-2-yl)-1-(1-isobutyrylpiperidin-4-yl)-1H-pyrazole-5-carboxamide]
140	O=C(Nc1ncc(C#Cc2ccccc2)cc1F)c1c(Cl)cnn1C1CCOCC1 [Compound 51, 4-chloro-N-(3-fluoro-5-(phenylethynyl)pyridin-2-yl)-1-(tetrahydro-2H-pyran-4-yl)-1H-pyrazole-5-carboxamide]
190	Cc1cc(C#Cc2ccc(F)cc2)cnc1NC(=O)c1c(Cl)cnn1C1CCN(C(=O)C2CC2)CC1 [Compound 101, 4-chloro-1-(1-(cyclopropanecarbonyl)piperidin-4-yl)-N-(5-((4-fluorophenyl)ethynyl)-3-methylpyridin-2-yl)-1H-pyrazole-5-carboxamide]
240	Cc1cc(C#Cc2ccc(F)cc2)cnc1NC(=O)c1c(Cl)cnn1C1CCN(C(=O)C(C)C)CC1 [Compound 151, 4-chloro-N-(5-((4-fluorophenyl)ethynyl)-3-methylpyridin-2-yl)-1-(1-isobutyrylpiperidin-4-yl)-1H-pyrazole-5-carboxamide]

Same assay, conditions: read-out: Tl^+ Assay % inhibition at 30 uM (Minus value indicates activation of TREK-1); at 30 uM; CHO-K1 cells stably expressing human TREK-1; minus = activation

inhibition at 30 µM [%]	Compound
-62	O=C(Nc1ncc(C#Cc2cccs2)cc1F)c1nn(CCC2CCN(C(=O)C3CC3)CC2)cc1Cl [Compound 452, 4-chloro-1-(2-(1-(cyclopropanecarbonyl)piperidin-4-yl)ethyl)-N-(3-fluoro-5-(thiophen-2-ylethynyl)pyridin-2-yl)-1H-pyrazole-3-carboxamide]
-107	CC(=O)N1CCC(CCn2cc(Cl)c(C(=O)Nc3ncc(C#Cc4cccs4)cc3F)n2)CC1 [Compound 447, 1-(2-(1-acetylpiperidin-4-yl)ethyl)-4-chloro-N-(3-fluoro-5-(thiophen-2-ylethynyl)pyridin-2-yl)-1H-pyrazole-3-carboxamide]
-56	Cn1ncc2c1CC(n1cc(Cl)c(C(=O)Nc3ncc(C#Cc4ccccc4)cc3F)n1)CC2=O (stereo not shown) [Compound 453, 4-chloro-N-(3-fluoro-5-(phenylethynyl)pyridin-2-yl)-1-(1-methyl-4-oxo-4,5,6,7-tetrahydro-1H-indazol-6-yl)-1H-pyrazole-3-carboxamide]
-79	Cc1cc(C#Cc2ccc(F)cc2)cnc1NC(=O)c1nn(CCC2CCN(C(=O)C3CC3)CC2)cc1Cl [Compound 451, 4-chloro-1-(2-(1-(cyclopropanecarbonyl)piperidin-4-yl)ethyl)-N-(5-((4-fluorophenyl)ethynyl)-3-methylpyridin-2-yl)-1H-pyrazole-3-carboxamide]
